This is an account of results in patent US8318947B2, “Comestible compositions comprising high potency savory flavorants, and processes for producing them” (Senomyx, Inc., priority 2006, dated 2012).

The structures appear in SMILES notation.

This experiment relates to human subjects, savory taste. Briefly: Human taste test of low sodium tomato juice. The experiment is classed as in vivo. The conditions noted are these: 3 μM cpd; 400 mg Na/8 oz tomato juice. As to the method: Human taste tests were conducted in order to evaluate the ability of the compounds of the invention to enhance the savory flavor of low sodium tomato juice (which naturally comprises some monosodium glutamate).
The final tomato juice samples for taste testing were prepared so as to comprise 90% (by volume) pre-made low sodium tomato juice stock (pH 4.2, 80˜100 mg Na/8 oz, 16 mM of naturally occurring MSG), 5% (by volume) of stock solutions formulated to produce selected final levels of sodium of final juice, and 5% (by volume) of a stock solution of the compound of the invention. Selected oxalamide compounds of the invention were dissolved in LSB (low sodium phosphate buffer), to provide a stock solution at 20 times the desired final concentration in the final tomato juice. The desired final sodium concentration of the final tomato juice was most experiments 73.6 mM (400 mg sodium in 8 oz. of juice), therefore a stock solution of NaCl was made at 1.48 M NaCl. The pH for the stock solutions was adjusted to 4.2 using a 1 M citric acid solution, and the stock solutions were sonicated to ensure the additive compounds were completely dissolved. […]
Scores were averaged across panelists and sessions, and evaluated using a 2-way ANOVA (factors: panelists and samples) and Duncan's multiple comparison test (alpha=0.05) to determine significant differences in intensity ratings.

Regarding `COc1ccc(CNC(=O)C(=O)NCCc2ccccn2)c(OC)c1` [Example 24, N-(2,4-Dimethoxy-benzyl)-N′-(2-pyridin-2-yl-ethyl)-oxalamide], the “Enhancement of the savory taste of 16 mM glutamate (naturally existing) in low sodium tomato juice” value is reported as “by 1.4 to 1.5-fold”.
